Laboratory results: ChEMBL document CHEMBL1221220, “Transport and signaling via the amino acid binding site of the yeast Gap1 amino acid transceptor” (Nat Chem Biol, 2009)
Where a chain is given by its changes, count along the chain named. Activity calls are given as the source filed them. The calls are words filed in the database; no cut-off is given here.

Tests used:
[1] = system: T1, General amino-acid permease GAP1 (Saccharomyces cerevisiae), P19145 [C397C]; experiment: Activation of yeast Gap1 C397C mutant-mediated amino acid uptake at 10 mM
T1 sequence (whole entry): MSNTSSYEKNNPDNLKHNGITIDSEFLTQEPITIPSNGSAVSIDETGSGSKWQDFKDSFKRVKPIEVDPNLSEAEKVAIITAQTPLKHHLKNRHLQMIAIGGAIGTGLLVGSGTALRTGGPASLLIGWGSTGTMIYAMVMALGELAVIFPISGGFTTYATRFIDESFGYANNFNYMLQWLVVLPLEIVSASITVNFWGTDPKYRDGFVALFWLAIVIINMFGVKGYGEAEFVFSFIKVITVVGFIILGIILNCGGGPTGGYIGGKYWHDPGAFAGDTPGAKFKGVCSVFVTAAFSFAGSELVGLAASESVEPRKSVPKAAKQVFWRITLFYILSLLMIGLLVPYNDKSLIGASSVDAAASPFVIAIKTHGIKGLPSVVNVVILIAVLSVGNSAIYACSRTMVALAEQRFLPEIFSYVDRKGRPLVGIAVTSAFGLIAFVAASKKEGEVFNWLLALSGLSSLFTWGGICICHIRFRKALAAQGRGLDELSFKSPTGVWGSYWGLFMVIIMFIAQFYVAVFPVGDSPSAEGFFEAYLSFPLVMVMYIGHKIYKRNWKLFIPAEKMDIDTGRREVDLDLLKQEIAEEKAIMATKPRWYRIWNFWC

[2] = system: T2, General amino-acid permease GAP1 (Saccharomyces cerevisiae), P19145 [A403C]; experiment: Induction of yeast Gap1 A403C mutant-mediated amino acid uptake at 2 mM in presence of 10 mM MTSEA treated before compound addition
T2 sequence (whole entry): T1 sequence (whole entry) with A403C

[3] = system: T3, General amino-acid permease GAP1 (Saccharomyces cerevisiae), P19145 [A385C]; experiment: Induction of yeast Gap1 A385C mutant-mediated trehalose activation at 10 mM
T3 sequence (whole entry): T1 sequence (whole entry) with A385C

[4] = system: T4, General amino-acid permease GAP1 (Saccharomyces cerevisiae), P19145 [A396C]; experiment: Induction of yeast Gap1 A396C mutant-mediated […] activation at 2 mM in presence of 10 mM MTSEA treated before compound addition
T4 sequence (whole entry): T1 sequence (whole entry) with A396C

Activity [1]: inactive | Activity [2]: Active | Activity [3]: inactive | inhibition [4]: Active
Structure (SMILES): NC(=O)NCCC[C@H](N)C(=O)O
